Experimental findings from EPA's ToxValDB 9.5 are described below.

Molecules are shown by their SMILES. Values joined by “and” are separate entries in the source; they are usually repeats but may differ in a detail not shown here. Equal entries are not always repeated.

Usually LOAEL stands for the lowest tested level that showed an adverse finding. Usually NOAEL stands for the highest tested level that showed no adverse finding. Broadly, the LD50 is the dose expected to kill half of the subjects tested. Lower therefore signals greater toxicity.

Series [1] concerns Rattus norvegicus. The settings on record: for LOEL / NOEL: Hershberger.
A further series concerns Mus musculus. The settings on record: for LOAEL / NOAEL: B6C3F1; for LD50: acute.
Series [2] deals with Rattus norvegicus. Conditions: for LD50: acute.
Series [3] relates to Rattus norvegicus. Conditions: subchronic; duration: 13 weeks; oral; diet; M/F; Fischer 344; Deaths + Clinical Observation: Soft stool, Diarrhea Redness around anus + Body Weight Changes: decrease + Food Consumption: decrease + Blood….
[4] abbreviates: duration: 10 days, injection, subcutaneous, Sprague-Dawley, active + Androgenic + androgenic.
[5] abbreviates: duration: 10 days, oral, gavage, Wistar, active + Androgenic + androgenic.
Setting [6] is: duration: 10 days, oral, gavage, wistar, active + Androgenic + androgenic.
Where [7] appears, read: subchronic, duration: 6 weeks, oral, gavage, F.
The mark [8] stands for this setting: subchronic, duration: 6 weeks, oral, gavage, M.
[9] abbreviates: subchronic, duration: 6 weeks, oral, gavage, F, Osborne-Mendel.
Where [10] appears, read: subchronic, duration: 6 weeks, oral, gavage, M, Osborne-Mendel.
The mark [11] stands for this setting: repeat dose other, inhalation, Fischer 344.
[12] abbreviates: short-term, duration: 14 days, oral, diet.
Where [13] appears, read: subchronic, duration: 13 weeks, oral, diet.
[14] abbreviates: chronic, duration: 103 weeks, oral, diet, Fischer 344.
Setting [15] is: short-term, duration: 14 days, oral, diet, Fischer 344.
[16] abbreviates: subchronic, duration: 13 weeks, oral, diet, Fischer 344.
[17] abbreviates: chronic, duration: 103 weeks, oral, diet.
Where [18] appears, read: subchronic, duration: 12 weeks, oral, diet, M.
[19] abbreviates: chronic, duration: 103 weeks, oral, diet, F, Fischer 344.
[20] abbreviates: chronic, duration: 103 weeks, oral, diet, M, Fischer 344.
[21] abbreviates: developmental, duration: 10 days, oral, gavage, Crl:CD(SD).
Setting [22] is: subchronic, duration: 12 weeks, oral, diet, F, Fischer 344.
Setting [23] is: subchronic, duration: 12 weeks, oral, diet, M, Fischer 344.

With `C[C@]12C=CC3=C4CCC(=O)C=C4CC[C@H]3[C@@H]1CC[C@@H]2O` [17beta-Trenbolone], the LOEL with Rattus norvegicus [1] (setting [4]) amounted to 200 mg/kg-day; with Rattus norvegicus [1] (duration: 10 days, oral, gavage, Sprague-Dawley, androgenic), 40 mg/kg-day; in the series on Rattus norvegicus [1] (setting [5]), 40 mg/kg-day; with Rattus norvegicus [1] (setting [6]), 40 mg/kg-day. Besides, the NOEL worked out at 100 mg/kg-day in the series on Rattus norvegicus [1] (setting [4]), 8 mg/kg-day in the series with Rattus norvegicus [1] (setting [5]) and 8 mg/kg-day with Rattus norvegicus [1] (setting [6]).
Take `O=S1(=O)CC=CC1` [2,5-Dihydrothiophene 1,1-dioxide]: the LOAEL worked out at 316 mg/kg-day with Mus musculus (setting [7]), 1000 mg/kg-day in the series with Mus musculus (setting [8]), 178 mg/kg-day in the series with Rattus norvegicus [2] (setting [9]) and 562 mg/kg-day in the series with Rattus norvegicus [2] (setting [10]). In addition, the NOAEL with Mus musculus (setting [7]) stood at 178 mg/kg-day; with Mus musculus (setting [8]), 562 mg/kg-day; in the series with Rattus norvegicus [2] (reproduction developmental, duration: 28 days, oral, gavage, Crj:CD, generation: F0), 75 mg/kg-day; in the series with Rattus norvegicus [2] (reproduction developmental, duration: 28 days, oral, gavage, Crj:CD, generation: F1) it was 25 mg/kg-day; in the series with Rattus norvegicus [2] (setting [9]) it was 100 mg/kg-day; in the series on Rattus norvegicus [2] (setting [10]), 316 mg/kg-day. The LD50 with Rattus norvegicus [2] (oral, gavage, Sprague-Dawley) is 2880 mg/kg.
`Clc1ccc(Cl)c(C(Cl)(Cl)Cl)n1` [3,6-Dichloro-2-(trichloromethyl)pyridine] returned an NOAEL with Mus musculus (repeat dose other, inhalation) of 3.47 mg/m3. The 50% lethal dose (LD50) in the series on Rattus norvegicus [2] (oral, gavage) is ≥ 1000 mg/kg and ≤ 2000 mg/kg. Moreover, in the series on Rattus norvegicus [2] (setting [11]), the LOAEL is 14.7 mg/m3 and the NOAEL stood at 3.47 mg/m3.
For `CCCCCCCCCCCCCCCCCCN` [1-Octadecanamine], the LD50 in the series with Mus musculus (oral, gavage) was 1000 mg/kg; with Rattus norvegicus [2] (oral, gavage), 1000 mg/kg and > 2000 mg/kg; with Rattus norvegicus [2] (oral, gavage, Sprague-Dawley), 4800 mg/kg; with Rattus norvegicus [2] (oral, gavage, Wistar), not below 2000 mg/kg.
Turning to `Nc1ccc(C=Cc2ccc(N)cc2S(=O)(=O)[O-])c(S(=O)(=O)[O-])c1.[Na+].[Na+]` [4,4'-Diamino-2,2'-stilbenedisulfonic acid, disodium salt], the LOAEL in the series on Mus musculus (setting [12]) was 50000 ppm; in the series on Mus musculus (setting [13]), 4920 mg/kg-day; with Rattus norvegicus [2] (setting [14]), 1950 mg/kg-day; with Rattus norvegicus [2] (setting [15]) it was 50000 ppm; in the series with Rattus norvegicus [2] (setting [16]) it was 4800 mg/kg-day. In addition, the NOAEL with Mus musculus (setting [12]) was found to be 25000 ppm; in the series on Mus musculus (setting [13]), 2460 mg/kg-day; with Rattus norvegicus [2] (setting [14]), 975 mg/kg-day; with Rattus norvegicus [2] (setting [15]) it was 25000 ppm; in the series on Rattus norvegicus [2] (setting [16]) it was 2400 mg/kg-day. Further, the LD50 in the series on Rattus norvegicus [2] (oral, gavage, Wistar) is more than 5000 mg/kg. Moreover, the NOEL in the series on Rattus norvegicus [3] was less than 600 mg/kg-day.
In the case of `CCCCCCCCCCCCCCC1CO1` (stereo unspecified) [1,2-Epoxyhexadecane], the LOAEL stood at 125 mg/kg-day in the series on Mus musculus (subchronic, duration: 13 weeks, dermal) and 125 mg/kg-day with Rattus norvegicus [2] (subchronic, duration: 90 days, dermal, Fischer 344). Besides, the LD50 is 2000 mg/kg with Rattus norvegicus [2] (dermal, occlusive, Sprague-Dawley) and more than 5000 mg/kg in the series with Rattus norvegicus [2] (oral, gavage, Sprague-Dawley).
With `Cl.N#Cc1ccc(C2CCCc3cncn32)cc1` (stereo unspecified), the NOEL in the series with Rattus norvegicus [1] (duration: 7 days, oral, gavage, Wistar, inactive + Negative + anti-androgenic + high dose decreased body wt but no effect on PPS or AST) stood at 6 mg/kg-day.
Turning to `C#C[C@@]1(OC(=O)CC)C[C@@H]2CC[C@@H]3[C@H](CC[C@@]4(C)[C@H]3CC[C@]4(C#C)OC(=O)CC)[C@H]2C1` [Dinordrin I], the LEL in the series on Rattus norvegicus [1] (uterotrophic, duration: 3 days, oral, Active) worked out at 0.000156 mg/day.
Turning to `O=S(=O)([O-])c1ccc(N=Nc2c(O)ccc3cc(S(=O)(=O)[O-])ccc23)cc1.[Na+].[Na+]` [FD&C Yellow 6], the LD50 was ≥ 4600 mg/kg and ≤ 5500 mg/kg in the series on Mus musculus (injection, intraperitoneal, ICI Alderley Park Strain); more than 6000 mg/kg in the series on Mus musculus (oral, ICI Alderley Park Strain); 3800 mg/kg in the series with Rattus norvegicus [2] (injection, intraperitoneal, Carworth); more than 10000 mg/kg in the series on Rattus norvegicus [2] (oral, Carworth); more than 2000 mg/kg with Rattus norvegicus [2] (oral, gavage, Wistar). In addition, the LOAEL was 4620 mg/kg-day in the series on Mus musculus (setting [17]); 19700 mg/kg-day in the series with Mus musculus (setting [18]); more than 1950 mg/kg-day with Rattus norvegicus [2] (setting [19]); 1950 mg/kg-day with Rattus norvegicus [2] (setting [20]); 300 mg/kg-day in the series with Rattus norvegicus [2] (setting [21]); 1200 mg/kg-day in the series on Rattus norvegicus [2] (setting [22]). In the series on Rattus norvegicus [2] (setting [23]), this molecule displayed an LOAEL of 2400 mg/kg-day. The NOAEL in the series on Mus musculus (setting [17]) is 2310 mg/kg-day; in the series with Mus musculus (setting [18]), 9850 mg/kg-day; in the series with Rattus norvegicus [2] (setting [19]) it was 1950 mg/kg-day; with Rattus norvegicus [2] (setting [20]), 975 mg/kg-day; in the series with Rattus norvegicus [2] (setting [21]) it was 100 mg/kg-day; with Rattus norvegicus [2] (reproduction developmental, duration: 126 days, oral, diet, Charles River Albino CD (R), generation: F0), 1500 mg/kg-day. The NOAEL in the series with Rattus norvegicus [2] (reproduction developmental, duration: 126 days, oral, diet, Charles River Albino CD (R), generation: F1) amounted to 1500 mg/kg-day; with Rattus norvegicus [2] (reproduction developmental, oral, diet, Crl:CD(SD)) it was 500 mg/kg-day; in the series on Rattus norvegicus [2] (setting [22]) it was 576 mg/kg-day; with Rattus norvegicus [2] (setting [23]) it was 1200 mg/kg-day.
